US9248115B2, “Silibinin component for the treatment of hepatitis” (MADAUS GmbH, priority 2007, dated 2016)
Read-outs that look alike come from different tables or passages of the source.

How the values were obtained:
[1] = Example 3: plasma pharmacokinetics of free and total silibinin A and B after Legalon SIL infusion (HPLC-UV); format: in vivo, human; settings: for AUC(0-∞), free silibinin: 20 mg/kg iv Legalon SIL, 8 hepatitis C patients; for AUC(0-∞), free silibinin / MRT / Tmax / clearance / Vd / half-life: plasma; for MRT / Tmax / clearance / Vd / half-life: human, intravenous, 20 mg/kg; for clearance: read-out: CL, free silibinin (converted); for Vd: read-out: Vz, free silibinin; for half-life: read-out: t1/2, free silibinin (converted)
Procedure: An in vivo study was performed to characterize plasma concentration/time profiles of silibinin in 8 patients suffering from chronic hepatitis C who received 7 days i.v. infusion treatment with 20 mg silibinin/kg body weight (Legalon® SIL). For multiple doses of 20 mg/kg body weight, plasma concentration/time profiles and PK parameters of free and total silibinin had been observed on day 1 (=single dose conditions) and were compared with those on day 7 (=expected steady state conditions).
The study samples were analyzed using a validated HPLC-UV method. During the assay period the analytical procedure was validated by two calibration curves per analytical run.

hepatitis C virus [2] = assay: Example 2: iv silibinin co-treatment during ongoing peginterferon/ribavirin, HCV-RNA; format: in vivo, human
Procedure: Patients were continuously treated with 180 μg peginterferon alfa 2a and weight based ribavirin. In spite of this treatment, five patients were HCV-RNA positive after 24 weeks of therapy: Three male patients and two female patients; four patients with HCV genotype 1 and one patient with HCV genotype 3a; three patients with cirrhosis. Four patients can be regarded as naïve, whereas one patient can be regarded as […] respect to two previous therapies (24 and 48 weeks). In the course of the ongoing treatment with 180 μg peginterferon alfa 2a and weight based ribavirin, all patients were treated at least once for 14 consecutive days with 20 mg/kg/d silibinin iv. During this period, combination therapy with peginterferon/ribavirin was continued.

[3] = Serum ALT during iv silibinin monotherapy (Protocol 1); format: in vivo, human; settings: 10 mg/kg/day iv for 7 days; decreased from 162±133; p=0.004
Procedure: Patients first received daily 10 mg/kg silibinin (Legalon Sil®, Madaus, Köln) infused over 4 hrs for 7 consecutive days. On day 1 blood was drawn for determination of oxidative stress parameters at baseline, every 30 minutes during the infusion and 2 hours after the end of the infusion. On day 8 treatment was changed to 140 mg silymarin (Legalon®, Madaus, Köln) TID per os in combination with 180 μ[…]®; Roche, Basel) and 1-1.2 g/d ribavirin (COPEGUS®; Roche, Basel).

[4] = biological target: T1, HCV NS5BΔ21 polymerase genotype J4 (1b) (Hepatitis C virus genotype 1b, UniProt O92972); assay: Cell-free enzyme assay for HCV RdRp activity; format: biochemical
T1 construct: HCV NS5BΔ21 polymerase genotype J4 (1b)
Procedure: NS5B RNA-dependent RNA polymerase (RdRp) is an essential enzyme fir viral replication (cf. S. B. Hwang et al., Virology 1997, 227, 439-46). The following pure compounds were tested in a cell-free enzyme assay for the detection of HCV RdRp activity: silibinin A, silibinin B, isosilibinin A, isosilibinin B, silichristin, silidianin, and the silibinin ester silibinin-C-2″,3-bis(hydrogensuccinate) disodium (active ingredient of Legalon® SIL).
Stock solutions (100 mM) of the compounds in 100% DMSO were prepared. The concentration of DMSO in all reactions was kept constant at 5%. Target enzyme for the study was HCV NS5BΔ21 polymerase genotype J4 (1b).
The IC50 value of the silibinin ester was determined from the dose-response curve of two measurements. […] Curves were fitted to data points and IC50 values were interpolated from the resulting curves using SigmaPlot 8.0 software.

hepatitis C virus [5] = assay: Protocol 1: serum HCV RNA (TaqMan PCR) in peginterferon/ribavirin nonresponders, iv silibinin for 7 days; format: in vivo, human; settings: monotherapy
Procedure: Patients with previous nonresponse to full dose of peginterferon/ribavirin combination therapy were selected for these studies. […] Patients were required to have a liver biopsy done within 2 years prior inclusion into this study. Standard inclusion/exclusion criteria for peginterferon/ribavirin therapy were applied. Patients first received daily 10 mg/kg silibinin (Legalon Sil®, Madaus, Köln) infused over 4 hrs for 7 consecutive days. On day 1 blood was drawn for determination of oxidative stress parameters at baseline, every 30 minutes during the infusion and 2 hours after the end of the infusion. On day 8 treatment was changed to 140 mg silymarin (Legalon®, Madaus, Köln) TID per os in combination with 180 μ[…]®; Roche, Basel) and 1-1.2 g/d ribavirin (COPEGUS®; Roche, Basel). In both protocols in case of intolerance to PEG-IFN alfa2a or ribavirin, standard dose adjustment guidelines were used. Antiviral combination therapy was given for a total of 24 weeks (with the Option to stop treatment in patients without a >2 log drop at week 12); virologic responders at week 24 were offered to continue treatment for further 48 weeks. After end of the infusion period patients were tested after weeks 2, 4, and then monthly till the end of therapy at week 24. Serum HCV RNA level was determined by the TaqMan PCR assay (Cobas […] TaqMan HCV Test; limit of detection, 15 IU/mL, Roche Diagnostics).

mouse cell line L929 = format: cell-based
Procedure: An in vitro study was performed to assess the cytotoxic potential of silymarin, silibinin, silibinin bis(hydrogensuccinate) disodium salt, and succinic acid by means of the XTT test using the mouse cell line L929 (cf. D. A. Scudiero et al., Cancer Res. 48, 4827-33; O, S. Weislow et al., J. Natl. Cancer Inst., 81, 577-86; N. W. Roehm et al., J. Immunol. Methods, 142). The following concentrations of the test items were tested: 9.77, 19.53, 39.06, 78.13, 156.25, 312.5, 625, 1250 μg/mL. Complete medium (RPMI 1640 containing 10% (v/v) FCS) was used as negative control. The solvent control for the test item was RPMI 1640 medium containing 10% (v/v) FCS) and 1% DMSO. The solvent control for the positive control was also RPMI 1640 medium containing 10% (v/v) FCS and 10.0% (v/v) deionized water. SDS was used as positive control. The following concentrations were applied: 3.125, 6.25, 12.5, 25, 50, 100, 125, 250 μg/mL. The incubation time was 24 hours at 37±1.5° C.

T1 sequence (O92972 2420-2989, stated change not applied): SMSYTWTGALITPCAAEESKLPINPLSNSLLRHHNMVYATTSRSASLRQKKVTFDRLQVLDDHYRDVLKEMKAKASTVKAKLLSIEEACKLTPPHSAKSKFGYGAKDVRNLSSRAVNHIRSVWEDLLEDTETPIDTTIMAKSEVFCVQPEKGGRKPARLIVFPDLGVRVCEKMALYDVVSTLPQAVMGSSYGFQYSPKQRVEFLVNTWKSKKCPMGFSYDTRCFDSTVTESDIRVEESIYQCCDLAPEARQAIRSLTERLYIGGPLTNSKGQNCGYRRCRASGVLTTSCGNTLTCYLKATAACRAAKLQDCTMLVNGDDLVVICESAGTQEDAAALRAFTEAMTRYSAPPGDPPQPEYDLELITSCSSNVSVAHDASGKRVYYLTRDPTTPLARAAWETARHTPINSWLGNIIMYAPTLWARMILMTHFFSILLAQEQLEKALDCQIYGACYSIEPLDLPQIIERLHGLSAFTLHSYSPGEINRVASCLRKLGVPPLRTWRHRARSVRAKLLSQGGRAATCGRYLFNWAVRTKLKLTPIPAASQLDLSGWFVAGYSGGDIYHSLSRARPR

AUC(0-tz), free silibinin ([1]; day 1) [ng·h/mL]	Cmax, free silibinin ([1]; day 1) [ng/mL]	HVD, free silibinin ([1]; day 1) [h]	AUC(0-∞), free silibinin ([1]; day 1) [ng·h/mL]	% PTF, free silibinin ([1]; day 7) [%]	AUCss, free silibinin ([1]; day 7) [ng·h/mL]	Cav, free silibinin ([1]; day 7) [ng/mL]	Cmax, free silibinin ([1]; day 7) [ng/mL]	HVD, free silibinin ([1]; day 7) [h]	MRT ([1]; day 1) [h]	Tmax ([1]; day 1) [h]	clearance ([1]; day 1) [mL/min/kg]	Vd ([1]; day 1) [L/kg]	half-life ([1]; day 1) [h]	MRT ([1]; day 7) [h]	clearance ([1]; day 7) [mL/min/kg]	Vd ([1]; day 7) [L/kg]	half-life ([1]; day 7) [h]	Compound	further results
3302 ± 1551	316 ± 108	10.12 ± 4.29	3614 ± 1648	164.00 ± 45.33	4095 ± 1942	171 ± 81	315 ± 119	11.87 ± 2.64	8.49 ± 2.64	3.73 ± 1.22	117	51.4 ± 12.7	4.58 ± 1.35	9.88 ± 1.86	98.3	55.3 ± 18.5	6.85 ± 1.29	COc1cc([C@H]2Oc3cc([C@H]4Oc5cc(O)cc(O)c5C(=O)[C@@H]4O)ccc3O[C@@H]2CO)ccc1O [Silibinin A]	–
559 ± 339	90 ± 44	6.09 ± 2.14	753 ± 397	305.24 ± 80.46	1041 ± 627	43 ± 26	120 ± 54	7.17 ± 1.63	8.81 ± 6.12	4.03 ± 0.04	747	286 ± 164	5.16 ± 4.96	6.27 ± 2.39	447	140 ± 49	4.35 ± 1.66	COc1cc([C@@H]2Oc3cc([C@H]4Oc5cc(O)cc(O)c5C(=O)[C@@H]4O)ccc3O[C@H]2CO)ccc1O [Silibinin B]	–
–	–	–	–	–	–	–	–	–	–	–	–	–	–	–	–	–	–	COc1cc(C2Oc3cc(C4Oc5cc(O)cc(O)c5C(=O)C4OC(=O)CCC(=O)O)ccc3OC2COC(=O)CCC(=O)O)ccc1O (stereo not drawn) [silibinin C-2′,3-bis(hydrogensuccinate)]	viral load after second co-treatment, FIG. 7 patient (hepatitis C virus [2]; 20 mg/kg/day iv 14 days, permanently depressed): below the detection limit; viral load rebound after the first administration interval, FIG. 7 patient (hepatitis C virus [2]; person): about 2 IU/mL; viral load after co-treatment, FIG. 8 patient (hepatitis C virus [2]; person, 20 mg/kg/day iv 14 days after 30 weeks, from about log 4 IU/mL, permanent): below the detection limit; viral load after co-treatment, FIG. 9 patient (hepatitis C virus [2]; person, 20 mg/kg/day iv 14 days after 72 weeks): far below the detection limit; viral load after first co-treatment, FIG. 7 patient (hepatitis C virus [2]; person, 20 mg/kg/day iv 14 days from week 24, from about log 4.5 IU/mL): below the detection limit; ALT after iv monotherapy [3]: 118±107 U/1; IC50 [4]: 47 ± 14 µM; NS5B inhibition compared with six purified constituents of silymarin ([4]; FIG. 11 vs FIG. 12): most efficient; mean log decline of HCV RNA within one week (hepatitis C virus [5]; 10 mg/kg/day iv for 7 days): 1.32±0.55 log; Serum HCV RNA at day 8 (mean±SD) (hepatitis C virus [5]; 10 mg/kg/day iv over 4 h for 7 days, baseline 6.59±0.53, 16 nonresponders, p<0.001): 5.26±0.81 log IU/ml
–	–	–	–	–	–	–	–	–	–	–	–	–	–	–	–	–	–	silymarin	calculated XTT50 value (mouse cell line L929): 35.2 µg/mL; cytotoxic potential higher than that of silibinin (mouse cell line L929): ~100%
